Assay [1] deals with COX-2. Description: Evaluation of COX-2 activity in vitro (PGE2 ELISA, recombinant enzyme). Format: biochemical, human or murine. The conditions noted are these: arachidonic acid 10 μM, pH 8.0, pre-incubation 10-20 minutes. The protocol: The COX-2 inhibition activity of the compounds of this invention illustrated in the Examples was determined by the following methods.
(§1) a. Preparation of recombinant COX baculoviruses
(§2) Recombinant COX-1 and COX-2 were prepared as scribed by Gierse et al, [J. Biochem., 305, 479-84 (1995)]. […] Recombinant baculoviruses were isolated by transfecting 4 μg of baculovirus transfer vector DNA into SF9 insect cells (2×10^8) along with 200 ng of linearized baculovirus plasmid DNA by the calcium phosphate method. See M. D. Summers and G. E. Smith, A Manual of Methods for Baculovirus Vectors and Insect Cell Culture Procedures, Texas Agric. Exp. Station Bull. 1555 (1987). Recombinant viruses were purified by three rounds of plaque purification and high titer (10^7 -10^8 pfu/mL) stocks of virus were prepared. For large scale production, SF9 insect cells were infected in 10 liter fermentors (0.5×10^6 /mL) with the recombinant baculovirus stock such that the multiplicity of infection was 0.1. After 72 hours the cells were centrifuged and the cell pellet homogenized in Tris/Sucrose (50 mM: 25%, pH 8.0) containing 1% 3-[(3-cholamidopropyl)dimethylammonio]-1-propanesulfonate (CHAPS). The nomogenate was centrifuged at 10,000×G for 30 minutes, and the resultant supernatant was stored at -80° C. before being assayed for COX activity.
(§3) COX activity was assayed as PGE2 formed/μg protein/time using an ELISA to detect the prostaglandin released. CHAPS-solubilized insect cell membranes containing the appropriate COX enzyme were incubated in a potassium phosphate buffer (50 mM, pH 8.0) containing epinephrine, phenol, and heme with the addition of arachidonic acid (10 μM). […] Any reaction between the arachidonic acid and the enzyme was stopped after ten minutes at 37° C./room temperature by transferring 40 μl of reaction mix into 160 μl ELISA buffer and 25 μM indomethacin. The PGE2 formed was measured by standard ELISA technology (Cayman Chemical).
A general note: An ELISA detects its analyte on a solid surface through an enzyme-linked reagent.

The target of assay [2] is COX-1. The assay can be described thus: Evaluation of COX-1 activity in vitro (PGE2 ELISA, recombinant enzyme). Format: biochemical, human or murine. The conditions noted are these: arachidonic acid 10 μM, pH 8.0, pre-incubation 10-20 minutes. The protocol: as §1, §2, §3

As usually defined, the IC50 is the concentration at which inhibition is half-maximal. In the case of `NS(=O)(=O)c1ccc(-c2c(-c3ccccc3)noc2CCCO)cc1` [Example 1o, 4-[5-(3-hydroxypropyl)-3-phenylisoxazol-4-yl]benzenesulfonamide], the half-inhibitory concentration (IC50) was 0.1 µM in assay [1] and greater than 100 µM in assay [2]. For `Cc1onc(-c2cccc(Cl)c2)c1-c1ccc(S(N)(=O)=O)cc1` [Example 48, 4-[3-(3-Chlorophenyl)-5-methylisoxazol-4-yl]benzenesulfonamide], in that order: 0.3 µM and 93 µM. The matching figures for `CCc1noc(-c2cccc(F)c2)c1-c1ccc(S(N)(=O)=O)cc1` [Example 31, 4-[3-Ethyl-5-(3-fluorophenyl)isoxazol-4-yl]benzenesulfonamide]: 1.3 µM and greater than 100 µM. For `Cc1onc(-c2cc(F)cc(F)c2)c1-c1ccc(S(N)(=O)=O)cc1` [Example 42, 4-[3-(3,5-Difluorophenyl)-5-methylisoxazol-4-yl]benzenesulfonamide], in that order: 22.5 µM and greater than 100 µM.

On to `Cc1ccc(-c2noc(C)c2-c2ccc(S(N)(=O)=O)cc2)cc1Cl` [Example 4d, 4-[3-(3-chloro-4-methylphenyl)-5-methyl-isoxazol-4-yl]benzenesulfonamide], for which the IC50 was less than 0.1 µM in assay [1] and 44 µM in assay [2]. On to `NS(=O)(=O)c1ccc(-c2c(-c3ccccc3)noc2CC(=O)O)cc1` [Example 9, [4-[4-(Aminosulfonyl)phenyl]-3-phenylisoxazol-5-yl]acetic acid], for which, in assay [2], the IC50 is greater than 100 µM. `Cc1onc(-c2ccncc2)c1-c1ccc(S(N)(=O)=O)cc1` [Example 4f, 4-[5-methyl-3-(4-pyridyl)-isoxazol-4-yl]benzenesulfonamide]: the IC50 in assay [1] and in assay [2] was greater than 100 µM in each case.

For the compound `CS(=O)(=O)c1ccc(-c2c(-c3ccccc3)noc2CO)cc1` [Example 61, 5-Hydroxymethyl-4-(4-methylsulfonyl)phenyl-3-phenyl-isoxazole], the IC50 in assay [1] is 0.2 µM; in assay [2] it was greater than 100 µM.

Take `Cc1onc(-c2ccc(Br)cc2)c1-c1ccc(S(N)(=O)=O)cc1` [Example 43, 4-[3-(4-Bromophenyl)-5-methyl-isoxazol-4-yl]benzenesulfonamide]: the IC50 was 0.6 µM in assay [1] and greater than 100 µM in assay [2]. For `NS(=O)(=O)c1ccc(-c2c(CC(=O)O)noc2-c2ccccc2)cc1` [Example 26, 4-(4-Aminosulfonylphenyl)-5-phenyl-isoxazole-3-acetic acid], in that order: 69.5 µM and greater than 100 µM. For `CCc1noc(-c2ccc(C)cc2)c1-c1ccc(S(N)(=O)=O)cc1` [Example 17, 4-[3-Ethyl-5-(4-methylphenyl)isoxazol-4-yl]benzenesulfonamide], in that order: 2.1 µM and greater than 100 µM. For `COc1ccc(-c2noc(C(F)F)c2-c2ccc(S(N)(=O)=O)cc2)cc1F` [Example 44, 4-[5-Difluoromethyl-3-(3-fluoro-4-methoxyphenyl)isoxazol-4-yl]benzenesulfonamide], the figures for the half-inhibitory concentration (IC50) in assay [1] and in assay [2] were 1.7 µM and greater than 100 µM, respectively.

For `COC(=O)c1ccc(OCc2onc(-c3ccccc3)c2-c2ccc(S(N)(=O)=O)cc2)cc1` [Example 50, Methyl 4-[[4-[4-(aminosulfonyl)phenyl]-3-phenylisoxazol-5-yl]methoxy]benzoate], the IC50 in assay [1] was less than 0.1 µM; in assay [2] it was greater than 100 µM.

Turning to `Cc1noc(-c2ccc(Cl)cc2)c1-c1ccc(S(N)(=O)=O)cc1` [Example 20, 4-[5-(4-chlorophenyl)-3-methylisoxazol-4-yl]benzenesulfonamide], the IC50 in assay [1] was 4.7 µM; in assay [2], greater than 100 µM. For `NS(=O)(=O)c1ccc(-c2c(-c3ccccc3)noc2CCl)cc1` [Example 1k, 4-[5-chloromethyl-3-phenylisoxazol-4-yl]benzenesulfonamide], in that order: less than 0.1 µM and 50.7 µM. For `Cc1noc(-c2ccccc2)c1-c1ccc(S(C)(=O)=O)cc1` [Example 27, 3-Methyl-4-(4-methylsulfonylphenyl)-5-phenylisoxazole], in that order: 46 µM and greater than 100 µM. For the compound `NS(=O)(=O)c1ccc(-c2c(-c3ccccc3)noc2CCCC(=O)O)cc1` [Example 36], the IC50 in assay [1] was 1.5 µM; in assay [2] it was greater than 100 µM. The matching figures for `COc1ccc(-c2noc(C)c2-c2ccc(S(N)(=O)=O)cc2)cc1F` [Example 4, 4-[3-(3-Fluoro-4-methoxyphenyl)-5-methylisoxazol-4-yl]benzenesulfonamide]: 3 µM and greater than 100 µM. The matching figures for `CSc1onc(-c2ccccc2)c1-c1ccc(S(N)(=O)=O)cc1` [Example 58, 4-[5-Methylthio-3-phenylisoxazol-4-yl]benzenesulfonamide]: less than 0.1 µM and 14 µM. The matching figures for `N#Cc1onc(-c2ccccc2)c1-c1ccc(S(N)(=O)=O)cc1` [Example 37, 4-[5-Cyano-3-phenylisoxazol-4-yl]benzenesulfonamide]: 20 µM and greater than 100 µM. For `CC(C)c1noc(-c2ccccc2)c1-c1ccc(S(N)(=O)=O)cc1` [Example 15, 4-[3-isopropyl-5-phenylisoxazol-4-yl]benzenesulfonamide], the IC50 is 0.1 µM in assay [1] and 59 µM in assay [2]. For `CC(C)c1onc(-c2ccccc2)c1-c1ccc(S(N)(=O)=O)cc1` [Example 1c, 4-[5-isopropyl-3-phenylisoxazol-4-yl]benzenesulfonamide], in that order: less than 0.1 µM and 6.2 µM. For `Cc1onc(-c2cccnc2)c1-c1ccc(S(N)(=O)=O)cc1` [Example 4e, 4-[5-methyl-3-(3-pyridyl)isoxazol-4-yl]benzenesulfonamide], in that order: 2 µM and greater than 100 µM. For `COCc1onc(-c2ccccc2)c1-c1ccc(S(N)(=O)=O)cc1` [Example 1n, 4-[5-methoxymethyl-3-phenylisoxazol-4-yl]benzenesulfonamide], in that order: less than 0.1 µM and greater than 100 µM. In the case of `NS(=O)(=O)c1ccc(-c2c(-c3ccccc3)noc2C(=O)O)cc1` [Example 11, [4-[4-(Aminosulfonyl)phenyl]-3-phenylisoxazol-5-yl]carboxylic acid], the IC50 in assay [1] is 35 µM. Take `Cc1onc(-c2ccc(F)c(F)c2)c1-c1ccc(S(N)(=O)=O)cc1` [Example 49, 4-[3-(3,4-Difluorophenyl)-5-methylisoxazol-4-yl]benzenesulfonamide]: the IC50 in assay [2] is greater than 100 µM. Still for that read-out and setting: next, `CCc1noc(-c2cccc(C)c2)c1-c1ccc(S(N)(=O)=O)cc1` [Example 32, 4-[3-Ethyl-5-(3-methylphenyl)isoxazol-4-yl]benzenesulfonamide]: 76 µM; `CCc1noc(-c2ccccc2)c1-c1ccc(S(C)(=O)=O)cc1` [Example 29, 3-Ethyl-4-(4-methylsulfonylphenyl)-5-phenylisoxazole]: greater than 100 µM.

As to `Cc1noc(-c2ccccc2)c1-c1ccc(S(N)(=O)=O)cc1` [Example 13, 4-[3-Methyl-5-phenylisoxazol-4-yl]benzenesulfonamide], the IC50 in assay [2] was found to be 6.4 µM. For `NS(=O)(=O)c1ccc(-c2c(-c3ccccc3)noc2C2CCCCC2)cc1` [Example 1f, 4-[5-cyclohexyl-3-phenylisoxazol-4-yl]benzenesulfonamide], the half-inhibitory concentration (IC50) in assay [2] amounted to 54 µM.

Source of the values: patent US5859257A, “Isoxazole compounds as cyclooxygenase inhibitors” (G. D. Searle & Co., priority 1996, dated 1999).
